Patent US20170174633A1 (RESEARCH TRIANGLE INSTITUTE, priority 2014, published 2017)
Several values for one entry are separate records, joined by “and”; a condition that tells them apart may be missing. Equal values may be shown once.

Tests used:
rNTS2 receptor [1] = target: T1, rNTS2 receptor (Rattus norvegicus, UniProt Q63384); test: Calcium mobilization assay for NTS2 receptor (FLIPR Tetra); format: cell-based; conditions: for NTS2 Emax % of 5b / EC50: FLIPR assay, ± SEM; for NTS2 Emax % of 5b: calcium release relative to 5b; for EC50: compound induced calcium release, CHO-kl-rNTS2 cells; for activity in NTS2 FLIPR assay: calcium release
T1 construct: expressed in transfected cells
T1 sequence (Q63384 1-416): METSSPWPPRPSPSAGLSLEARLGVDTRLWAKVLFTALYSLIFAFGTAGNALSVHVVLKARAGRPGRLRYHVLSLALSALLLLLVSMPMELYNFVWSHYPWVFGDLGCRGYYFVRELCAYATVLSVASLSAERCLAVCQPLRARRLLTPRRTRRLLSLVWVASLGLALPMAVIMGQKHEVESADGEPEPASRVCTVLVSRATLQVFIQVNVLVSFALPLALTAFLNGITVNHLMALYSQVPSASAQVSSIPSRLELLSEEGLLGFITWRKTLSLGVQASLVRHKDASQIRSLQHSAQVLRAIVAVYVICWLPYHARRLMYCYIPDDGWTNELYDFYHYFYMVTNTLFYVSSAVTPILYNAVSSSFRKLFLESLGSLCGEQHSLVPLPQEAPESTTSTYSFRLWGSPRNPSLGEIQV
Protocol: (§1) The binding affinities of the test compounds for the rNTS1 and rNTS2 receptors listed in Tables 1 through 4 were determined using previously reported competitive binding assays^49. […] The cells used in the binding assay were CHO-kl cells (American Type Culture Collection) engineered to over-express either the rNTS1 or rNTS2 receptor. Measures of functional agonism and antagonism were obtained by measuring changes in intensity of a calcium-sensitive fluorescent dye as an indirect measure of changes in internal calcium concentrations. These measurements were performed using a FLIPR Tetra (NTS2) or a FlexStation II plate reader for NTS1 (Molecular Devices) and were analyzed using GraphPad Prism software.
CHO-kl-rNTS2 cells were maintained in DMEM/F12 supplemented with 10% FBS, pen/strep, 100 μg/ml normocin, and 400 μg/ml geneticin. For calcium mobilization assays, cells were plated at 25,000 cells/well in black, clear-bottom 96-well plates 24 hrs before the assay and incubated at 37° C., 5% CO2. 100 μl reconstituted Calcium 5 dye (Molecular Devices, diluted 1:20 in assay buffer (1×HBSS, 20 mM HEPES, 2.5 mM Probenicid, pH 7.4)) was added per well and plates were incubated for 45 min at 37° C., 5% CO2. […] Full-log serial dilutions of the test compounds were made at 10× the desired final concentration in 1% DMSO assay buffer and warmed to 37° C. After the pre-treatment incubation, fluorescence intensity was measured on a FLIPR Tetra fluorometric imaging plate reader (Molecular Devices). Relative Fluorescence Units (RFUs) were measured every second for 100 seconds (14 readings before compound addition to establish baseline fluorescence, 85 after) Exposure time 0.53 s, Gain=2000, Excitation intensity=30%, Gate open=10%. For antagonist assays, 1/10 volume of 10×concentration of the test compound dilutions in 10% DMSO in assay buffer was added to cells in lieu of the 10% DMSO only in assay buffer for the pre-treatment.
(§2) To determine EC50, IC50, and Ke values, data were fit to a three-parameter logistic equation using GraphPad Prism software. Ki values for radioligand binding assays were determined from ICso values using the equation of Cheng and Prusoff. All data are from at least three independent experiments run in duplicate wells.

rNTS1 receptor = target: T2, rNTS1 receptor (Rattus norvegicus, UniProt P20789); test: Calcium mobilization assay for NTS1 receptor (FLIPR assay, FlexStation II); format: cell-based; conditions: for Kb: read-out: NTS1 Ke
T2 construct: expressed in transfected cells
Protocol: as §1
CHO-kl-rNTS1 cells were maintained in DMEM/F12 medium supplemented with 10% fetal bovine serum (Gibco), 100 U/ml penicillin/100 ug/ml streptomycin, 100 ug/ml normocin (Invivogen), and 250 ug/ml geneticin. For calcium mobilization assays, cells were plated at 30,000 cells/well in black, clear-bottom 96-well plates 24 hrs before the assay and incubated at 37° C., 5% CO2. Prior to the assay, Calcium 5 dye (Molecular Devices) was reconstituted according to manufacturer instructions. The reconstituted dye was diluted 1:40 in assay buffer (lx HBSS, 20 mM HEPES, and 2.5 mM Probenicid (Sigma), pH 7.4). Growth media was removed and 200 ul of this diluted dye was added to each well. Plates were incubated for 45 min at 37° C., 5% CO2 after dye addition. […] Full-log serial dilutions of the test compounds were made at 10× the desired final concentration in 1% DMSO assay buffer and warmed to 37° C. After the pre-treatment incubation, fluorescence intensity was measured on a FlexStation II fluorometric imaging plate reader (Molecular Devices). Relative fluorescence units (RFU) were measured before (20 readings) and after (40 readings) the agonist compound addition for a total 60 second read time (Excitation=485 nm, Emission=525 nm, cutoff=515 nm). For antagonist assays, cells were treated with Calcium dye for 45 min at 37° C., 5% CO2 as with the agonist assays. Then the test antagonist compounds were added in 1% DMSO in assay buffer and the plate was incubated for 15 min at 37° C., 5% CO2.
as §2

rNTS2 receptor [2] = target: T1, rNTS2 receptor; test: 125I-NT competitive binding assay, whole CHO-kl cells over-expressing rNTS2; conditions: competition with 125I-NT; ± SEM; read-out: 125I-NT Binding NTS2 Ki
Protocol: as §1
Briefly, cells were plated at 100,000 cells/well in 24-well plates in complete DMEM/F12 medium supplemented with 10% fetal bovine serum, 100 units of penicillin/mL, 100 μg of streptomycin/mL, 0.1 mg/mL of normocin, and 250 μg/mL geneticin. Cells were incubated at 37° C. with 5% CO2 and 95% humidity for 48 hrs. […] Cells were washed twice in Earle's buffer, extracted in 1 ml 0.1N NaOH and counted in a Packard Cobra II Gamma Counter for 1 minute.
as §2

[3] = antagonism of NT induced calcium release, ± SEM

T2 sequence (P20789 whole entry): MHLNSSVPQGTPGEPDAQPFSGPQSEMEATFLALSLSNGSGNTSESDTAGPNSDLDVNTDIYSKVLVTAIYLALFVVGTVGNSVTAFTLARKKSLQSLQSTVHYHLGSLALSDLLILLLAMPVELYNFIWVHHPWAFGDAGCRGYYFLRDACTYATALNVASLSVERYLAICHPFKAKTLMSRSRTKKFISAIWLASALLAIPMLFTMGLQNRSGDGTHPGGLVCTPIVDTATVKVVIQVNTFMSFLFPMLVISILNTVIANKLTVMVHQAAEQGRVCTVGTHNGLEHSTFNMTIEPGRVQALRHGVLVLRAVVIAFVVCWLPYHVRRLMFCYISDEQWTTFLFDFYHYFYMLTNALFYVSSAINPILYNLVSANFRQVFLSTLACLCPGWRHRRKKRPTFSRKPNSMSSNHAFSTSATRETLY

SMILES | NTS2 Emax % of 5b (rNTS2 receptor [1]) | NTS1 Ke (rNTS1 receptor; [3]) [nM] | Kb (rNTS1 receptor; [3]) [nM] | EC50 (rNTS2 receptor [1]) [nM] | EC80 of 5b (rNTS2 receptor [1]; final concentration used in IC50 assays) [nM] | Ki (rNTS2 receptor [2]) [nM] | activity in NTS2 FLIPR assay (rNTS2 receptor [1]) | activity in NTS1 FLIPR assay (rNTS1 receptor; agonist and antagonist mode versus NT)
COc1cccc(OC)c1-c1cc(C(=O)NC2(C(=O)O)C3CC4CC(C3)CC2C4)nn1-c1ccnc2cc(Cl)ccc12 (centres unmarked) [5a, Meclinertant, reference compound] | 100 % of 5b and 100 ± 3 % of 5b and 100 ± 15 % of 5b |  |  |  |  |  |  | 
COc1cccc(OC)c1-c1cc(C(=O)NC2(C(=O)O)C3CC4CC(C3)CC2C4)nn1-c1ccc(C(=O)N(C)CCCN(C)C)cc1C(C)C (centres unmarked) [5b, reference compound] | 100 ± 5 % of 5b | 1.5 ± 0.6 | 1.5 | 20 | 73 | 6 |  | 
COc1cccc(OC)c1-c1cc(C(=O)N[C@H](C(=O)O)C2CCCCC2)nn1-c1ccnc2cc(Cl)ccc12 [14b, (2S)-({[1-(7-Chloroquinolin-4-yl)-5-(2,6-dimethoxyphenyl)-1H-pyrazol-3-yl]carbonyl}amino)-(cyclohexyl)ethanoic Acid] | 86 % of 5b and 86 ± 3 % of 5b |  | 23 ± 6 | 217 ± 19 |  | 644 |  | 
COc1ccc(OC)c(-c2cc(C(=O)N[C@H](C(=O)O)C3CCCCC3)nn2-c2ccnc3cc(Cl)ccc23)c1 [15b, (2S)-({[1-(7-chloroquinolin-4-yl)-5-(2,5-dimethoxyphenyl)-1H-pyrazol-3-yl]carbonyl}amino) (cyclohexyl)ethanoic acid] | 19 ± 3 % of 5b |  | 1280 ± 544 | 216 ± 29 |  | 604 ± 141 |  | 
COc1ccc(-c2cc(C(=O)N[C@H](C(=O)O)C3CCCCC3)nn2-c2ccnc3cc(Cl)ccc23)c(OC)c1 [16b, (2S)-({[1-(7-Chloroquinolin-4-yl)-5-(2,4-dimethoxyphenyl)-1H-pyrazol-3-yl]carbonyl}-amino)-(cyclohexyl)ethanoic Acid] | 12 ± 3 % of 5b |  |  | 382 ± 33 |  | 1580 ± 505 |  | 
COc1ccccc1-c1cc(C(=O)N[C@H](C(=O)O)C2CCCCC2)nn1-c1ccnc2cc(Cl)ccc12 [17b, (2S)-({[1-(7-chloroquinolin-4-yl)-5-(2-methoxyphenyl)-1H-pyrazol-3-yl]carbonyl}amino)(cyclohexyl) ethanoic acid] | 25 ± 2 % of 5b |  | 1680 ± 527 | 258 ± 14 |  | 1420 ± 468 |  | 
O=C(N[C@H](C(=O)O)C1CCCCC1)c1cc(-c2c(F)cccc2F)n(-c2ccnc3cc(Cl)ccc23)n1 [18b, (2S)-({[1-(7-Chloroquinolin-4-yl)-5-(2,6-difluorophenyl)-1H-pyrazol-3-yl]carbonyl}amino) (cyclohexyl)ethanoic Acid] | 15 ± 3 % of 5b |  |  | 166 ± 3 |  | 1000 ± 227 |  | 
CCc1c(C(=O)N[C@H](C(=O)O)C2CCCCC2)nn(-c2ccnc3cc(Cl)ccc23)c1-c1c(OC)cccc1OC [19b, (2S)-({[1-(7-Chloroquinolin-4-yl)-5-(2,6-dimethoxyphenyl)-4-ethyl-1H-pyrazol-3-yl]carbonyl}amino)(cyclohexyl)ethanoic Acid] | 15 % of 5b and 15 ± 1 % of 5b |  |  |  |  |  |  | 
COc1cccc(OC)c1-c1cc(C(=O)NC2(C(=O)O)CCCCCC2)nn1-c1ccnc2cc(Cl)ccc12 [20b, 1-({[1-(7-Chloroquinolin-4-yl)-5-(2,6-dimethoxyphenyl)-1H-pyrazol-3-yl]carbonyl}amino)cyclo-heptanecarboxylic Acid] | 89 ± 5 % of 5b |  | 42 ± 6 | 21 ± 5 |  | 170 |  | 
COc1cccc(OC)c1-c1cc(C(=O)NC2(C(=O)O)CCCCC2)nn1-c1ccnc2cc(Cl)ccc12 [21b, 1-({[1-(7-Chloroquinolin-4-yl)-5-(2,6-dimethoxyphenyl)-1H-pyrazol-3-yl]carbonyl}amino)cyclo-hexanecarboxylic Acid] | 78 % of 5b and 78 ± 7 % of 5b |  | 157 ± 45 | 29 ± 2 |  | 151 |  | 
COc1cccc(OC)c1-c1cc(C(=O)NC2(C(=O)O)CCCC2)nn1-c1ccnc2cc(Cl)ccc12 [22b, 1-({[1-(7-Chloroquinolin-4-yl)-5-(2,6-dimethoxyphenyl)-1H-pyrazol-3-yl]carbonyl}amino)cyclo-pentanecarboxylic Acid] | 76 ± 4 % of 5b |  | 222 ± 14 | 20 ± 4 |  | 102 |  | 
COc1ccccc1-c1cc(C(=O)NC2(C(=O)O)CCCCC2)nn1-c1ccnc2cc(Cl)ccc12 [23b, 1-({[1-(7-Chloroquinolin-4-yl)-5-(2-methoxyphenyl)-1H-pyrazol-3-yl]carbonyl}amino)cyclohexane carboxylic Acid] | 35 % of 5b and 35 ± 1 % of 5b |  | 4550 ± 636 | 62 ± 9 |  | 533 ± 153 |  | 
COc1cccc(OC)c1-c1cc(C(=O)N[C@H](C(=O)O)C2CCCCC2)nn1-c1cccc2ccccc12 [24b, (2S)-Cyclohexyl({[5-(2,6-dimethoxyphenyl)-1-naphthalen-1-yl-1H-pyrazol-3-yl]carbonyl}amino)-ethanoic Acid] | 45 % of 5b and 45 ± 1 % of 5b |  | 58 ± 6 | 159 ± 9 |  | 536 ± 20 |  | 
COc1ccccc1-c1cc(C(=O)N[C@H](C(=O)O)C2CCCCC2)nn1-c1cccc2ccccc12 [25b, (2S)-Cyclohexyl({[5-(2-methoxyphenyl)-1-naphthalen-1-yl-1H-pyrazol-3-yl]carbonyl}amino) ethanoic Acid] | 18 ± 2 % of 5b |  | 1400 ± 330 | 229 ± 8 |  | 2690 ± 639 |  | 
CC[C@H](C)[C@H](NC(=O)[C@H](Cc1ccc(O)cc1)NC(=O)[C@@H]1CCCN1C(=O)[C@H](CCCNC(=N)N)NC(=O)[C@@H](N)CCCNC(=N)N)C(=O)N[C@@H](CC(C)C)C(=O)O [compound 1, Arg-Arg-Pro-Tyr-Ile-Leu, reference compound] |  |  |  |  |  |  | neither NT nor the NT(8-13) fragment (1) showed any calcium release | 
COc1cccc(OC)c1-c1cc(C(=O)NC2C3CC4CC(C3)CC2C4)nn1-c1ccnc2cc(Cl)ccc12 (centres unmarked) [compound 13, 1-(7-chloroquinolin-4-yl)-5-(2,6-dimethoxyphenyl)-N-tricyclo[3.3.1.13,7]dec-2-yl-1H-pyrazole-3-carboxamide] |  |  |  |  |  |  | inactive | inactive
